Reference: patent US11371055B2, “Herbicide resistance genes” (CORTEVA AGRISCIENCE LLC, priority 2005, dated 2022)
Where “and” joins values, the source holds several entries; their conditions need not be identical. Equal values may be shown once.

Columns and labels:
[1] = test system: T1 AAD-12 (v1) rice lines pDAB4101(20)003 and pDAB4101(27)002; assay: 2,4-D DMA tolerance in T1 rice; format: in vivo, Oryza sativa
From the text: The following T1 AAD-12 (v1) single segregating locus lines were planted into 3-inch pots containing Metro Mix media: pDAB4101(20)003 and pDAB4101(27)002. At 2-3 leaf stage were sprayed with 140 g ae/ha imazethapyr. Nulls were eliminated and individuals were sprayed at V3-V4 stage in the track sprayer set to 187 L/ha at 1120, 2240 or 4480 g ac/ha 2,4-D DMA (2×, 4×, and 8× typical commercial use rates, respectively). Plants were graded at 7 and 14 DAT and compared to untransformed commercial rice cultivar. ‘Lamont,’ as negative control plants.

[2] = test system: 2P782 (Roundup Ready Control) corn; assay: Herbicide tolerance of 2P782 Roundup Ready control corn in the F1 stack test; format: in vivo, Zea mays; settings: 1120 g ae/ha 2,4-D DMA
From the text: AAD-12 (v1) (pDAB4101) and elite Roundup Ready inbred (BE1146RR) were reciprocally crossed and F1 seed was collected. The seed from two F1 lines were planted and treated with 70 g ae/ha imazethapyr at the V2 stage to eliminate nulls. To the surviving plants, reps were separated and either treated with 1120 g ae/ha 2,4-D DMA+70 g ae/ha imazethapyr (to confirm presence of AHAS gene) or 1120 g ae/ha 2,4-D DMA+1680 g ae/ha glyphosate (to confirm the presence of the Round Up Ready gene) in a track sprayer calibrated to 187 L/ha. Plants were graded 3 and 16 DAT.

KY160 control tobacco = assay: Elevated 2,4-D DMA rates in greenhouse tobacco, sensitive control; format: in vivo, Nicotiana tabacum
From the text: T1 AAD-12 (v1) plants from an event segregating 3R:1S when selected with 560 g ai/ha Liberty using the same protocol as previously described. T1 AAD-1 (v3) seed was also planted for transformed tobacco controls (see PCT/US2005/014737). Untransformed KY160 was served as the sensitive control. Plants were sprayed using a track sprayer set to 187 L/ha at 140, 560, 2240, 8960, and 35840 g ae/ha 2,4-D DMA and rated 3 and 14 DAT.

[3] = test system: T4 Arabidopsis seed homozygous for AAD-12 (v1) spiked into wildtype (sensitive) seed; assay: AAD-12 (v1) as selectable marker with 2,4-D as selection agent; format: in vivo, Arabidopsis thaliana; settings: applied 7 and 11 days after planting (DAP); Resistant or Sensitive identified 17 DAP
Experimental: The ability to use AAD-12 (v1) as a selectable marker using 2,4-D as the selection agent was analyzed initially with Arabidopsis transformed as described above. Approximately 50 T4 generation Arabidopsis seed (homozygous for AAD-12 (v1)) were spiked into approximately 5,000 wildtype (sensitive) seed. Several treatments were compared, each tray of plants receiving either one or two application timings of 2,4-D in one of the following treatment schemes: 7 DAP, 11 DAP, or 7 followed by 11 DAP. Since all individuals also contained the PAT gene in the same transformation vector, AAD-12 selected with 2,4-D could be directly compared to PAT selected with glufosinate.
Treatments were applied with a DeVilbiss spray tip as previously described. Plants were identified as Resistant or Sensitive 17 DAP.

[4] = test system: wildtype Maverick soybeans; assay: 2,4-D spray application on wildtype soybean; format: in vivo, Glycine max
From the text: Plants that are transferred to the greenhouse can be assayed for the presence of an active PAT gene further with a non-destructive manner by painting a section of leaf of the T0 primary transformant, or progeny thereof, with a glufosinate solution [0.05-2% v/v Liberty Herbicide, preferably 0.25-1.0% (v/v),=500-2000 ppm glufosinate, Bayer Crop Science]. Depending on the concentration used, assessment for glufosinate injury can be made 1-7 days after treatment. Plants can also be tested for 2,4-D tolerance in a non-destructive manner by selective application of a 2,4-D solution in water (0.25-1% v/v commercial 2,4-D dimethylamine salt formulation, preferably 0.5% v/v=2280 ppm 2,4-D ae) to the terminal leaflet of the newly expanding trifoliolate one or two, preferably two, nodes below the youngest emerging trifolioate. This assay allows assessment of 2,4-D sensitive plants 6 hours to several days after application by assessment of leaf flipping or rotation >90 degrees from the plane of the adjacent leaflets. Plants tolerant to 2,4-D will not respond to 2,4-D. To plants will be allowed to self fertilize in the greenhouse to give rise to T1 seed. T1 plants (and to the extent enough T0 plant clones are produced) will be sprayed with a range of herbicide doses to determine the level of herbicide protection afforded by AAD-12 (v1) and PAT genes in transgenic soybean. Rates of 2,4-D used on T0 plants will typically comprise one or two selective rates in the range of 100-1120 g ae/ha using a track sprayer as previously described. T1 plants will be treated with a wider herbicide dose ranging from 50-3200 g ae/ha 2,4-D. Likewise, T0 and T1 plants can be screened for glufosinate resistance by postemergence treatment with 200-800 and 50-3200 g ae/ha glufosinate, respectively. Glyphosate resistance (in plants transformed with constructs that contain EPSPS) or another glyphosate tolerance gene can be assessed in the T1 generation by postemergence applications of glyphosate with a dose range from 280-2240 g ae/ha glyphosate. Analysis of protein expression will occur as described in below. Individual T0 plants were assessed for the presence of the coding region of the gene of interest (AAD-12 (v1) or PAT v6) and copy number. Determination of the inheritance of AAD-12 (v1) will be made using T1 and T2 progeny segregation with respect to herbicide tolerance as described in previous examples.
The screened plants were then sampled for molecular and biochemical analyses for the confirmation of the AAD12 (v1) genes integration, copy number, and their gene expression levels as described below and reported in Table 25.

[5] = test system: wildtype Maverick soybeans; assay: 2,4-D leaf paint (leaf flip assay) on wildtype soybean; format: in vivo, Glycine max; set-up: key to Leaf flip assay (18 HAT) Node N-2: 1 = Flip; 0 = No Flip
From the text: Plants that are transferred to the greenhouse can be assayed for the presence of an active PAT gene further with a non-destructive manner by painting a section of leaf of the T0 primary transformant, or progeny thereof, with a glufosinate solution [0.05-2% v/v Liberty Herbicide, preferably 0.25-1.0% (v/v),=500-2000 ppm glufosinate, Bayer Crop Science]. Depending on the concentration used, assessment for glufosinate injury can be made 1-7 days after treatment. Plants can also be tested for 2,4-D tolerance in a non-destructive manner by selective application of a 2,4-D solution in water (0.25-1% v/v commercial 2,4-D dimethylamine salt formulation, preferably 0.5% v/v=2280 ppm 2,4-D ae) to the terminal leaflet of the newly expanding trifoliolate one or two, preferably two, nodes below the youngest emerging trifolioate. […] Glyphosate resistance (in plants transformed with constructs that contain EPSPS) or another glyphosate tolerance gene can be assessed in the T1 generation by postemergence applications of glyphosate with a dose range from 280-2240 g ae/ha glyphosate. […] Individual T0 plants were assessed for the presence of the coding region of the gene of interest (AAD-12 (v1) or PAT v6) and copy number. […]
A subset of the initial transformants were assessed in the T0 generation according to the methods above. […]

[6] = Maverick WT individual plants (WT-5, WT-6, WT-7), spray 560 g ae/ha 2,4-D
[7] = Maverick WT individual plants (WT-10, WT-8, WT-9), spray 1120 g ae/ha 2,4-D

For CNC.O=C(O)COc1ccc(Cl)cc1Cl [2,4-D DMA], which “Average % injury 14 DAT” value ([1]; T1 pDAB4101(20)003, 1120 g ae/ha) is on record?
The value was 10%.

What about the “Average % injury 14 DAT” value ([1]; T1 pDAB4101(20)003, 2240 g ae/ha) of the same compound?
The value was 15%.

And the “Average % injury 14 DAT” value ([1]; T1 pDAB4101(20)003, 4480 g ae/ha)?
The value was 23%.

What about the “Average % injury 14 DAT” value ([1]; T1 pDAB4101(27)002, 1120 g ae/ha) of the same compound?
The value was 10%.

And the “Average % injury 14 DAT” value ([1]; T1 pDAB4101(27)002, 2240 g ae/ha)?
The value was 30%.

What about the “Average % injury 14 DAT” value ([1]; T1 pDAB4101(27)002, 4480 g ae/ha) of the same compound?
Its value is 40%.

What about the “Average % Injury 16DAT” value [2] of the same compound?
The value was 19%.

O=C(O)COc1ccc(Cl)cc1Cl [2,4-D, 2,4-dichlorophenoxyacetic acid] was tested. Which “Average % injury 14 DAT” value (KY160 control tobacco; 2240 g ae/ha 2,4-D) did it give?
Its value is 95%.

What about the “Average % injury 14 DAT” value (KY160 control tobacco; 8960 g ae/ha 2,4-D) of the same compound?
Its value is 99%.

What about the “Average % injury 14 DAT” value (KY160 control tobacco; 35840 g ae/ha 2,4-D) of the same compound?
Its value is 100%.

What about the “optimum treatment for selection of transformed plants” value [3] of the same compound?
The value was 75 g ae/ha.

And the “response to herbicide spray application” value ([4]; 560 g ae/ha 2,4-D, 7-14 DAT)?
Its value is “severely injured”.

What about the “response to herbicide spray application” value ([4]; 1120 g ae/ha 2,4-D) of the same compound?
Its value is “killed”.

And the “% injury 2 DAT” value [4, 6]?
The value was 50% and 70% (2×).

What about the “% injury 7 DAT” value [4, 6] of the same compound?
The value was 60% and 90% and 80%.

And the “% injury 14 DAT” value [4, 6]?
The value was 60% and 80% (2×).

And the “% injury 2 DAT” value [4, 7]?
Its value is 70%.

What about the “% injury 7 DAT” value [4, 7] of the same compound?
The value was 90% and 95% (2×).

And the “% injury 14 DAT” value [4, 7]?
Its value is 100%.

What about the “Leaf flip assay (18 HAT) Node N-2” value ([5]; 2,4-D leaf paint, Maverick WT plants (WT-10, WT-2)) of the same compound?
The value was 1.

And the “response to 2,4-D leaf painting” value ([5]; 2,4-D solution applied to terminal leaflet)?
The value was “did”.
